Read-outs that look alike come from different tables or passages of the source.
Test system: mouse fibroblast L-929
Test: 5-day MTT cytotoxicity assay
Type: cell-based
Details: L-929, 5-day MTT assay
Protocol: Cytotoxicity of compounds 1‒5 was initially determined against two cancer cell lines (mouse fibroblasts L-929 and human endocervical adenocarcinoma KB-3.1) by using a 5-day MTT assay according to an established procedure.
In 96-well flat-bottom microtiter plates, cell lines with serial dilution of the test compounds (final range: 37 to 0.6 × 10^−3 µg/mL) were incubated for five days. After five days, the cells were dyed using 3-(4,5-dimethyl-2-thiazolyl)-2,5-diphenyl-2H-tetrazolium bromide (MTT), which is only converted to its purple formazan derivative by living cells. The half-maximum inhibitory concentration (IC50 in µM) was calculated via the colorimetric method in a microplate reader using absorption at 595 nm. In addition, when an inhibition with an IC50 < 50 µM was observed, other cell lines were subjected to the test compounds to evaluate their further cytotoxicity: PC-3 (human prostate adenocarcinoma), SK-OV-3 (human ovary adenocarcinoma), MCF-7 (human breast adenocarcinoma), A-431 (human squamous carcinoma), and A549 (human lung carcinoma). A detailed procedure, including the colorimetric method to determine the cell viability, can be found in the SI.
Protocol: Cytotoxicity Assay
The assay was co nducted in 9 6-well flat -botto m microtiter plates using the parameters summarised in T able S2 and as described in [S2]. Cell l ines L-929 and KB-3.1 were incubated at 37 °C under 10 % CO2 in Gibco™ DMEM medium (T her mo Fisher Scientific, Waltham, M A, USA) supplemented with 10 % FBS. A microtiter plate was filled wit h 120 μ L o f this suspensio n (50,000/mL) in each well. Seperatel y, a nother microti ter plate wa s filled wit h 100 μL of gro wth medium in each well. Then, 50 μ L of the test compound solutions (1 mg/mL) were given to wells of the first column in two replicates (one compound per row). Cells without additives and MeOH were used as nega tive controls. Starting from the first column, 50 μ L of the solutions were gradually transferred to the next column, the contents thoroughly mixed, and 50 μL transferred to the following column. This created a serial dilution of the test compounds ranging from 333 μ g/mL to 1.9×10-3 μg/ mL. T he re mai ni ng 50 μ L after column twelve were discarded. From this microtiter plate, 60 μ L of the solutions fro m 111 μ g/mL to 1.9×10-3 μg/mL we r e give n to t he firs t p late co ntai ni ng 1 2 0 μ L of the cell suspensions (i.e. the highest co ncentration 333 μ g/ mL wa s no t used). T his resul ted in fi nal compo und concentratio ns rangi ng fro m 37 μ g/mL to 0.6×10-3 μg/ mL. After 5 days o f incubatio n under the aforementioned incubatio n conditions, the half maximu m inhibitory co ncentrations (IC50) were deter mined using a colorimetric tetrazolium d ye MT T assa y [S3]. For this, 20 μ L of a 5 mg/mL solution of 3-(4,5-dimethyl-2 -thiazolyl) -2,5-diphenyl-2H-tetrazolium br omide (MTT) were added to each well and incubated for two hours at 37 °C. T hen, the microtiter plate was ce ntrifuged (3,000 rpm, 5 min) and the supernatant removed by holding the plate upside-down and gentle shaking. Afterwards, the wells were washed using 100 μ L of phosphate buffered saline (PBS). T he plate was a gain ce ntrifuged a nd the supernata nt re mo ved as described before.
T hen, 1 0 0 μ L of an isopropanol:HCl solution (1L isopropanol+4 mL HCl 37 % w/v) were added to the wells. After incubating for 10 min at ambient temperature, the absorption of the wells at 595 nm was measured with an Infinite® 200 Pro microplate reader (TECAN, Männedorf, Schweiz). The absorption values of the cells without additives were averaged and set to 100 % cell viability. Then, the means of absorption of the two compound replicates were set in relation to the blank media. T hese percentage values were plotted against the concentratio n range (37 μ g/mL to 0.6×10−3 μg/ mL). T he IC50 value was r ead fro m the plot (in μ g/ mL) a nd the uni ts conversed […]
to μM. […]

CC(=O)OC(C(=O)O)C(C)C1C(C)=CC2CC(C)CCC2C1(C)C(O)=C1C(=O)C(C)N(C)C1=O (centres unmarked) [compound 1, Colposetin A]
IC50: not active

CCC(C(=O)O)C1C(C)=CC2CC(C)CCC2C1(C)C(O)=C1C(=O)C(C)N(C)C1=O (centres unmarked) [compound 2, Colposetin B]
IC50 (Mus musculus, L929, 120 h, read-out: IC50): 57.5 µM

CC1=CC2CC(C)CCC2C2(C)C(=O)OC(C(=O)O)C(C)C12 (centres unmarked) [compound 3, Colposetin C]
IC50: not active

CC(C=CCC(C)CCC=C(C)C(=O)C1=C(O)C(C)N(C)C1=O)=CC(C)C(O)C(=O)O (centres unmarked) [compound 4, Colpomenoic acid A]
IC50: not active

CC(C=CCC(C)C=CC=C(C)C(=O)C1=C(O)C(C)N(C)C1=O)=CC(C)C(O)C(=O)O (centres unmarked) [compound 5, Colpomenoic acid B]
IC50: not active

From article PMC8224775, “Five Tetramic Acid Derivatives Isolated from the Iranian Fungus Colpoma quercinum CCTU A372” (Biomolecules, 2021)
